Patent US20240109893A1, “PREPARATION AND APPLICATION METHOD OF HETEROCYCLIC COMPOUNDS AS KRAS INHIBITOR” (SHANGHAI KECHOW PHARMA, INC., priority 2020, published 2024)

test system: H358 cells; experiment: Cell activity experiment: activity test of H358 cells (MTT, 5 days); type: cell-based; conditions: Homo sapiens, NCI-H358, 120 h, 5 days incubation, absorbance 492 nm
Experimental: Example: Cell Activity Experiment
1. Cells: H358 purchased from Shanghai EK-Bioscience Biotechnology Co., Ltd.
2. Reagents: RPMI 1640 medium, Tryple, MTT (5 mg/mL), DMSO, and DPBS.
3. Instruments: an incubator at 37° C. and 5% CO2, a UTRAO microplate reader, a biosafety cabinet, a cell counting plate, and an Optec optical microscope.
4. Experimental consumables: 96-well plate Item No.: 3599, and 96-well round-bottomed dispensing plate.
Experimental Steps of Activity Test of H358 Cells:
1. Plating: Cells in the logarithmic growth phase were digested with Tryple and terminated with a fresh medium, and the cells were counted; and the cell concentration was adjusted to 55555 cells/mL with a fresh medium, wherein 90 μL was added to each well, and those on edges were filled with sterile DPBS.
2. The plate was incubated in the incubator at 37° C. and 5% CO2 for 24 h, so that the cells cover the bottom of the well by about 50%.
3. Drug preparation for experimental group: The drug was dissolved in DMSO to prepare a 20 mmol/L stock solution; the stock solution was further diluted with DMSO to 2 mmol/L, which was serially 3-fold diluted to form an […]-concentration gradient, resulting in a 200× serial compound solution; 10 μL of the serial compound solution was taken and added to 190 μLμL of RPMI1640 medium to obtain a 10× serial compound solution; and 10 μL of the 10× compound solution was taken and added to 90 μL 96-well cell culture plate, with three replicates per grade. The concentration gradient of the compound in the 96-well cell culture plate was […], 1.524158 nM, 4.572474 nM, 13.717420 nM, 41.152260 nM, 123.456800 nM, 370.370400 nM, 1111.111000 nM, 3333.333000 nM, and 10000.000000 nM, with 100 μL per well, and the final concentration of DMSO was 0.5%.
The control group contained the same volume of solvent as the experimental group and was diluted with a complete medium, with 100 μL per well.
4. Incubation was carried out for 5 days in an incubator with 5% CO2 at 37° C.
5. After 5 days, 10 μL of an MTT solution (5 mg/mL) was added to each well, and the culture was continued for 4 h.
6. The culture was terminated, and the culture solution was carefully sucked out of the well.
7. 150 μL of dimethyl sulfoxide (DMSO) was added to each of the null wells in the experimental group and the control group; and after shaking at a medium speed for 10 s, the crystal was fully dissolved, and the optical absorbance value thereof was measured at a wavelength of 492 nm.

IC50 [nM] | SMILES
40 | C=C(F)C(=O)N1CC[C@@H]2[C@H]1CN2c1nc(OC[C@@H]2CCCN2C)nc2c(F)c(-c3ccc(F)c4c3CCCC4)ncc12 [Example 26]
15 | C=CC(=O)N1CC[C@@H]2[C@H]1CN2c1nc(OC[C@@H]2C[C@@H](F)CN2C)nc2c(F)c(-c3ccc(F)c4c3CCCC4)ncc12 [Example 27]
80 | C=C(F)C(=O)N1CC[C@@H]2[C@H]1CN2c1nc(OC[C@@H]2C[C@@H](F)CN2C)nc2c(F)c(-c3ccc(F)c4c3CCCC4)ncc12 [Example 28]
10 | C=CC(=O)N1CC[C@@H]2[C@H]1CN2c1nc(OCC23CCCN2CCC3)nc2c(F)c(-c3ccc(F)c4c3CCCC4)ncc12 [Example 29]
60 | C=C(F)C(=O)N1CC[C@@H]2[C@H]1CN2c1nc(OCC23CCCN2CCC3)nc2c(F)c(-c3ccc(F)c4c3CCCC4)ncc12 [Example 30]
8 | C=CC(=O)N1CC[C@@H]2[C@H]1CN2c1nc(OC[C@@]23CCCN2C[C@H](F)C3)nc2c(F)c(-c3ccc(F)c4c3CCCC4)ncc12 [Example 31]
35 | C=C(F)C(=O)N1CC[C@@H]2[C@H]1CN2c1nc(OC[C@@]23CCCN2C[C@H](F)C3)nc2c(F)c(-c3ccc(F)c4c3CCCC4)ncc12 [Example 32]
25 | C=CC(=O)N1CCN(c2nc(OC[C@@H]3CCCN3C)nc3c(F)c(-c4cncc5c4CCCC5)ncc23)C[C@@H]1CC#N [Example 33, 2-((S)-1-acryloyl-4-(8-fluoro-2-(((S)-1-methylpyrrolidin-2-yl)methoxy)-7-(5,6,7,8-tetrahydroisoquinoline-4-yl)pyridino[4,3-d]pyrimidin-4-yl)piperazin-2-yl)acetonitrile]
80 | C=C(F)C(=O)N1CCN(c2nc(OC[C@@H]3CCCN3C)nc3c(F)c(-c4cncc5c4CCCC5)ncc23)C[C@@H]1CC#N [Example 34, 2-((S)-4-(8-fluoro-2-(((S)-1-methylpyrrolidin-2-yl)methoxy)-7-(5,6,7,8-tetrahydroisoquinolin-4-yl)pyridino[4,3-d]pyrimidin-4-yl)-1-(2-fluoroacryloyl)piperazin-2-yl)acetonitrile]
15 | C=CC(=O)N1CCN(c2nc(OC[C@@H]3C[C@@H](F)CN3C)nc3c(F)c(-c4cncc5c4CCCC5)ncc23)C[C@@H]1CC#N [Example 35]
120 | C=C(F)C(=O)N1CCN(c2nc(OC[C@@H]3C[C@@H](F)CN3C)nc3c(F)c(-c4cncc5c4CCCC5)ncc23)C[C@@H]1CC#N [Example 36]
15 | C=CC(=O)N1CCN(c2nc(OCC34CCCN3CCC4)nc3c(F)c(-c4cncc5c4CCCC5)ncc23)C[C@@H]1CC#N [Example 37, (S)-2-(1-acryloyl-4-(8-fluoro-2-((tetrahydro-1H-pyrrolizin-7a(5H)-yl)methoxy)-7-(5,6,7,8-tetrahydroisoquinolin-4-yl)pyridino[4,3-d]pyrimidin-4-yl)piperazin-2-yl)acetonitrile]
36 | C=C(F)C(=O)N1CCN(c2nc(OCC34CCCN3CCC4)nc3c(F)c(-c4cncc5c4CCCC5)ncc23)C[C@@H]1CC#N [Example 38, (S)-2-(4-(8-fluoro-2-((tetrahydro-1H-pyrrolizin-7a(5H)-yl)methoxy)-7-(5,6,7,8-tetrahydroisoquinolin-4-yl)pyridino[4,3-d]pyrimidin-4-yl)-1-(2-fluoroacryloyl)piperazin-2-yl)acetonitrile]
8 | C=CC(=O)N1CCN(c2nc(OC[C@@]34CCCN3C[C@H](F)C4)nc3c(F)c(-c4cncc5c4CCCC5)ncc23)C[C@@H]1CC#N [Example 39]
30 | C=C(F)C(=O)N1CCN(c2nc(OC[C@@]34CCCN3C[C@H](F)C4)nc3c(F)c(-c4cncc5c4CCCC5)ncc23)C[C@@H]1CC#N [Example 40]
15 | C=CC(=O)N1CC[C@@H]2[C@H]1CN2c1nc(OC[C@@H]2CCCN2C)nc2c(F)c(-c3cncc4c3CCCC4)ncc12 [Example 41]
35 | C=C(F)C(=O)N1CC[C@@H]2[C@H]1CN2c1nc(OC[C@@H]2CCCN2C)nc2c(F)c(-c3cncc4c3CCCC4)ncc12 [Example 42, 2-fluoro-1-(((1R,5R)-6-(8-fluoro-2-(((S)-1-methylpyrrolidin-2-yl)methoxy)-7]-(5,6,7,8-tetrahydroisoquinolin-4-yl)pyridino[4,3-d]pyrimidin-4-yl)-2,6-diazabicyclo[3.2.0]hept-2-yl)prop-2-en-1-one]
16 | C=CC(=O)N1CC[C@@H]2[C@H]1CN2c1nc(OC[C@@H]2C[C@@H](F)CN2C)nc2c(F)c(-c3cncc4c3CCCC4)ncc12 [Example 43]
64 | C=C(F)C(=O)N1CC[C@@H]2[C@H]1CN2c1nc(OC[C@@H]2C[C@@H](F)CN2C)nc2c(F)c(-c3cncc4c3CCCC4)ncc12 [Example 44]
10 | C=CC(=O)N1CC[C@@H]2[C@H]1CN2c1nc(OCC23CCCN2CCC3)nc2c(F)c(-c3cncc4c3CCCC4)ncc12 [Example 45, 1-((1R,5R)-6-(8-fluoro-2-((tetrahydro-1H-pyrrolizin-7a(5H)-yl)methoxy)-7-(5,6,7,8-tetrahydroisoquinoline-4-yl)pyridino[4,3-d]pyrimidin-4-yl)-2,6-diazabicyclo[3.2.0]hept-2-yl)prop-2-en-1-one]
30 | C=C(F)C(=O)N1CC[C@@H]2[C@H]1CN2c1nc(OCC23CCCN2CCC3)nc2c(F)c(-c3cncc4c3CCCC4)ncc12 [Example 46, 2-fluoro-1-(((1R,5R)-6-(8-fluoro-2-((tetrahydro-1H-pyrrolizin-7a(5H)-yl)methoxy))-7-(5,6,7,8-tetrahydroisoquinolin-4-yl)pyridino[4,3-d]pyrimidin-4-yl)-2,6-diazabicyclo[3.2.0]hept-2-yl)prop-2-en-1-one]
6.5 | C=CC(=O)N1CC[C@@H]2[C@H]1CN2c1nc(OC[C@@]23CCCN2C[C@H](F)C3)nc2c(F)c(-c3cncc4c3CCCC4)ncc12 [Example 47]
20 | C=C(F)C(=O)N1CC[C@@H]2[C@H]1CN2c1nc(OC[C@@]23CCCN2C[C@H](F)C3)nc2c(F)c(-c3cncc4c3CCCC4)ncc12 [Example 48]
57 | C=CC(=O)N1CCN(c2nc(OC[C@@H]3CCCN3C)nc3c(F)c(-c4cccc5c4SCCC5)ncc23)C[C@@H]1CC#N [Example 49, 2-((S)-1-acryloyl-4-(8-fluoro-2-(((S)-1-methylpyrrolidin-2-yl)methoxy)-7-(thiochroman-8-yl)pyridino[4,3-d]pyrimidin-4-yl)piperazin-2-yl)acetonitrile]
140 | C=CC(=O)N1CCN(c2nc(OC[C@@H]3CCCN3C)nc3c(F)c(-c4cccc5c4CCOC5)ncc23)C[C@@H]1CC#N [Example 50, 2-((S)-1-acryloyl-4-(8-fluoro-7-(isochroman-5-yl)-2-(((S)-1-methylpyrrolidin-2-yl)methoxy)pyridino[4,3-d]pyrimidin-4-yl)piperazin-2-yl)acetonitrile]
148 | C=CC(=O)N1CCN(c2nc(OC[C@@H]3CCCN3C)nc3c(F)c(-c4cccc5ccsc45)ncc23)C[C@@H]1CC#N [Example 51, 2-((S)-1-acryloyl-4-(7-(benzo[b]thien-7-yl)-8-fluoro-2-(((S)-1-methylpyrrolidin-2-yl)methoxy)pyridino[4,3-d]pyrimidin-4-yl)piperazin-2-yl)acetonitrile]
